Measured values from article PMC7565698, “Catabolic Reductive Dehalogenase Substrate Complex Structures Underpin Rational Repurposing of Substrate Scope” (Microorganisms, 2020).

What was measured:
[1] = target: T1, NpRdhA (Nitratireductor pacificus, UniProt K2MB66); assay: X-ray crystal structure, soaked crystals ([…] Å); type: binding; conditions: N-terminal His tag, 100 mM soak
T1 construct: gene NA2_14372; full-length, N-terminal His6 tag (NpRdhA^N; crystals) or C-terminal His6 tag (NpRdhA^C; A419M); expressed in Bacillus megaterium; holds cobalamin and two [4Fe-4S] clusters

[2] = target: T2, NpRdhA (Nitratireductor pacificus, UniProt K2MB66, A419M); assay: HPLC of dehalogenation products; type: biochemical; conditions: NADPH, spinach ferredoxin, E. coli flavodoxin reductase, 30 °C, anaerobic; C-terminal His tag
T2 construct: gene NA2_14372; full-length, N-terminal His6 tag (NpRdhA^N; crystals) or C-terminal His6 tag (NpRdhA^C; A419M); expressed in Bacillus megaterium; holds cobalamin and two [4Fe-4S] clusters

[3] = target: T1, NpRdhA; assay: X-band continuous wave EPR of cob(II)alamin; type: binding; conditions: 20 mM ligand, 100 uM protein, 30 K

T1 sequence (K2MB66 entry or part of it): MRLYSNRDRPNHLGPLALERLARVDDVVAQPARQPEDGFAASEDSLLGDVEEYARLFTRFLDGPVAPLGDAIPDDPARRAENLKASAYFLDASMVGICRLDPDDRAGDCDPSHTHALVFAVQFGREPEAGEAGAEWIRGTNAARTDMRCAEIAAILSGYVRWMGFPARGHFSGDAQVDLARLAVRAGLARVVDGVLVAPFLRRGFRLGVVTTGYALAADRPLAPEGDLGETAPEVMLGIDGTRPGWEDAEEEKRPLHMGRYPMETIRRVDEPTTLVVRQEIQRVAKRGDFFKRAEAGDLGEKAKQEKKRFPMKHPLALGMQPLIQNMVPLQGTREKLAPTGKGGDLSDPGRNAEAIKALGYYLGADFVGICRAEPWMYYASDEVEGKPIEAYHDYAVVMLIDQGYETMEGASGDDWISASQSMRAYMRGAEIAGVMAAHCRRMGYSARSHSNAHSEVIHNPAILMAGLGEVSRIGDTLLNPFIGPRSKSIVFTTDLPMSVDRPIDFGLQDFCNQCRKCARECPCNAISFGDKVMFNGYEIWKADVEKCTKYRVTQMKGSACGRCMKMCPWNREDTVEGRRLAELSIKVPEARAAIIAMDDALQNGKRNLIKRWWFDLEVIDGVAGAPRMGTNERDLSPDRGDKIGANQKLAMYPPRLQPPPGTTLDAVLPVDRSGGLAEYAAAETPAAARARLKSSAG
T2 sequence (K2MB66 entry or part of it A419M): as the sequence (K2MB66 entry or part of it) above, with A419M counted along it

`O=C(O)c1ccc(O)c(Br)c1` [3-B-4-OH, 3-bromo-4-hydroxybenzoic acid] was tested, and the “X-ray crystal structure, soaked crystals (1.99 Å)” value ([1]; three conformations, one with Br ligating Co, one at the active site entrance) was “structure of the NpRdhA^N protein in complex with 3-B-4-OH obtained through soaking” and the “HPLC of dehalogenation products” value [2] was “revealed the ability to dehalogenate 35-DB-4-OH, 3-B-4-OH, 35-DC-4-OH and 3-C-4-OH”.

With `O=C(O)c1cc(Cl)c(O)c(Cl)c1` [35-DC-4-OH, 3,5-dichloro-4-hydroxybenzoic acid] the “X-band continuous wave EPR of cob(II)alamin” value [3] was “a distinct change in both g and hyperfine coupling values on substrate binding”.

For `O=C(O)c1cc(Br)c(O)c(Br)c1` [35-DB-4-OH, 3,5-dibromo-4-hydroxybenzoic acid], the “X-ray crystal structure, soaked crystals (1.99 Å)” value ([1]; active site above cobalamin, Br at Co beta-axial position, partial photoreduction to 3-bromo-4-hydroxybenzoic acid) was 35-DB-4-OH is located above the cobalamin and the “HPLC of dehalogenation products” value [2] was “revealed the ability to dehalogenate 35-DB-4-OH, 3-B-4-OH, 35-DC-4-OH and 3-C-4-OH”.
